From US6262073A, “Pharmaceutical methods of use of 5-substituted and 5,5 disubstituted-3,4-dihydroxy-2(5H)-furanones” (Oxis International Inc., priority 2000, dated 2001) come the findings set out here.

Assay [1] addresses T1, Cyclooxygenase-2 (prostaglandin H synthetase-2) from sheep placenta (Ovis aries, UniProt P79208).
T1 construct: cyclooxygenase-2 from sheep placenta; from tissue; host or cells: sheep placenta
T1 sequence (P79208 17-603): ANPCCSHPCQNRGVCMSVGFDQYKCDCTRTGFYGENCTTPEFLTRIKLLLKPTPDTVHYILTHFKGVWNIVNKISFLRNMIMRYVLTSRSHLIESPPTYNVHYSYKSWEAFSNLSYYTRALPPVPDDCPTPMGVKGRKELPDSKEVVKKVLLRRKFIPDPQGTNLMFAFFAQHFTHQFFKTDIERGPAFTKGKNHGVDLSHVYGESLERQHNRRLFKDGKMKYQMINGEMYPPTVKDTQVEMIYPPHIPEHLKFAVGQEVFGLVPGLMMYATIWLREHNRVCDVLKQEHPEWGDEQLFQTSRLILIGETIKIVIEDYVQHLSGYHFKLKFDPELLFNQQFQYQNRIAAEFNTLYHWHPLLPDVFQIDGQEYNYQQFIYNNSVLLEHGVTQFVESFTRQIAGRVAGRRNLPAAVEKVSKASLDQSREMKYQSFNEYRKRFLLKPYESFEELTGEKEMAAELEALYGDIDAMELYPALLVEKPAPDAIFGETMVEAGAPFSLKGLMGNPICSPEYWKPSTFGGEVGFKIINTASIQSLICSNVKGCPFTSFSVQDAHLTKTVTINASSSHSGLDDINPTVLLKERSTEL
Put plainly: Cyclooxygenase-2 screen (COX-2). As to conditions: read-out: COX-2 percent inhibition. It counts as biochemical. The procedure:
(§1) The compounds of the invention were screened for their anti-inflammatory activity using a series of in vitro tests the details of which are given below. The activity of various compounds against 5-lipoxygenase, cycloxygenase-1, cycloxygenase-2 and lipid peroxidase was evaluated. Results of the screening procedures are included in TABLE I, and the activity against 5-lipoxygenase at a test concentration of 1 μM in Table II.
Cyclooxygenase-2, also known as prostaglandin H synthetase-2, catalyzes the rate- limiting step in the synthesis of inflammatory prostaglandins. In this reaction cyclooxygenase-2 catalyzes the oxygenation of unesterified precursors to form cyclic endoperoxide derivatives, including prostaglandin H. Briefly, cyclooxygenase-2 from sheep placenta, 14 μg/assay tube, is incubated with arachidonic acid (500 μM) for 1.5 minutes at 27° C. in the absence or presence of test compounds according to the methods of A. T. Evans, et al., Biochem Pharm. […] Res. Comm. […] Compounds are screened at 300 μM.

The target of assay [2] is T2, Cyclooxygenase-1 (cyclooxygenase from ram seminal vesicles) (Ovis aries, UniProt P05979).
T2 construct: cyclooxygenase from ram seminal vesicles; from tissue; host or cells: ram seminal vesicles
T2 sequence (P05979 25-600): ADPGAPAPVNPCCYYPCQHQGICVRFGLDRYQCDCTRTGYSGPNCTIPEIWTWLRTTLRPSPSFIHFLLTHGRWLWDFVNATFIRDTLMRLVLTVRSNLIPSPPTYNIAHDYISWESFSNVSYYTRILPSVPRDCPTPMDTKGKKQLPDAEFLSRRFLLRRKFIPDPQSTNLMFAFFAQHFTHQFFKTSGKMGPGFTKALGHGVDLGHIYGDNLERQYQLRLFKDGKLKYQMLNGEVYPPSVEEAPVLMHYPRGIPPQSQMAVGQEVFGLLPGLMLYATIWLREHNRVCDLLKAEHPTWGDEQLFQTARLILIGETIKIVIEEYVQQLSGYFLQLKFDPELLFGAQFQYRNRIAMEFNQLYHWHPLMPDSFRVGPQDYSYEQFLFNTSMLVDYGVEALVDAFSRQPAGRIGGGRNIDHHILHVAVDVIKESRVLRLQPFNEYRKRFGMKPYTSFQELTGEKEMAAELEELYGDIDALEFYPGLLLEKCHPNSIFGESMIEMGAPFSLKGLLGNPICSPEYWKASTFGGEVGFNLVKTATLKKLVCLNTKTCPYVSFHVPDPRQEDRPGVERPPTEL
Put plainly: Cyclooxygenase-1 screen (COX-1). The class given is biochemical. As to conditions: 300 μM. The procedure: as §1
Cyclooxygenase-1 is involved in the formation of prostaglandins and thromboxane via the oxidative metabolism of arachidonic acid. Briefly, cyclooxygenase from ram seminal vesicles is incubated with arachidonic acid (100 μm) for 2 minutes at 37° C. in the presence or absence of test compounds according to the methods of A. T. Evans et al., Biochem. Pharm. 36:2035-2037(1987) and R. Boopathy et al., Biochem J. 239:371-377 (1968). The assay is terminated by the addition of trichioroacetic acid and cyclooxygenase activity is determined by reading the absorbance at 530 nm. […]

Assay [3] concerns the target T3, 5-Lipoxygenase (crude enzyme preparation from rat basophilic leukemia cells, RBL-1) (Rattus norvegicus, UniProt P12527).
T3 construct: crude enzyme preparation from rat basophilic leukemia cells (RBL-1); endogenous in cells; host or cells: rat basophilic leukemia cells (RBL-1)
T3 sequence (P12527 1-673): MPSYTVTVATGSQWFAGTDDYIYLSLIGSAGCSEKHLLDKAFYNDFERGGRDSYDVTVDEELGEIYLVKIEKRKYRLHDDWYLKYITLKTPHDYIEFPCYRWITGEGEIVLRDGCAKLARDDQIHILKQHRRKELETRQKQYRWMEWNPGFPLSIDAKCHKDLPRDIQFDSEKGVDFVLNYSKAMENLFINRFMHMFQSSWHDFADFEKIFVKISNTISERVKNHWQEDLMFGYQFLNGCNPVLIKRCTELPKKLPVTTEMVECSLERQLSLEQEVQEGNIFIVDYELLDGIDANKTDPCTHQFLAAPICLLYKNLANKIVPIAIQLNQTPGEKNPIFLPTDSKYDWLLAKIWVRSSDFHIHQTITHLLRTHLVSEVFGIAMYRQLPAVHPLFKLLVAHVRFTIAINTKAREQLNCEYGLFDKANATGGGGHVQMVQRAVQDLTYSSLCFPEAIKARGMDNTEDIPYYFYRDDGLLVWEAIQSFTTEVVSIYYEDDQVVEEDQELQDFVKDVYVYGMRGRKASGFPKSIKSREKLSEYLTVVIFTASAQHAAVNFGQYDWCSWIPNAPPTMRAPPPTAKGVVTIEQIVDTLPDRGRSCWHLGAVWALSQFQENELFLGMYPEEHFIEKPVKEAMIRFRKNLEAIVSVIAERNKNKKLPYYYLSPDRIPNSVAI
Description: 5-Lipoxygenase screen (5-LO), 5-HETE by RIA. To be noted: for inhibition at 30 µM: read-out: 5-LO percent inhibition; for inhibition at 1 µM: read-out: Percent inhibition of 5-LO, test conc. 1 μM (Table II). It counts as biochemical. The procedure:
as §1
5-Lipoxygenase catalyzes the oxidative metabolism of arachidonic acid to […] (5-HETE), the initial reaction leading to the formation of the leukotrienes. Briefly, the testing procedure utilizes a crude enzyme preparation from rat basophilic leukemia cells (RBL-1) according to the methods of T. Shimuzu et al. Pro. […] Test compounds are pre-incubated with the enzyme preparation for 5 minutes at room temperature and the reaction is initiated by the addition of arachidonic acid. Following an 8 minute incubation at room temperature, the reaction is terminated by the addition of citric acid and concentrations of 5-HETE are determined by RIA. Compounds are screened at 30 μM.

Assay [4] concerns Lipid peroxidation (rat liver microsomes). Put plainly: Lipid peroxidation screen (LPO), CCl4-induced, liver microsomes. The class given is biochemical. To be noted: 300 μM. The procedure: as §1
Lipid peroxidation is a consequence of various stimuli, including reactive free radicals. Polyunsaturated fatty acids associated with plasma membranes are degraded due to enzymatic induction by reactive agents such as CCl4, leading to cellular damage. Briefly, microsomes are prepared from rat livers and the protein concentration is determined according to the method of D. Mansuy et al., Biochem. Biophys. Res. Comm. 135:1015-1021(1986). A reaction mixture consisting of 2 mg of the microsomal preparation, an NADPH generating system, 20 mM CCl4 and test compound are incubated for 12 minutes at 37° C. The reaction is terminated by the addition of a mixture of thiobarbituric acid and trichloroacetic acid. The absorbance is read at 535 nm and is proportional to the concentration of malondialdehyde. Compounds are screened at 300 μM.
For orientation: Liver microsomes are a subcellular fraction often used to study metabolism.

For assay [5], the system named is Nuclear Factor-kappa B (NF-κB). Put plainly: NF-κB lacZ (κB-Z) reporter assay in transfected Jurkat cells stimulated with A23187 and PMA. It counts as cell-based, human. To be noted: Homo sapiens; 10 μM; κB-Z Jurkat cells, A23187 and PMA (Table III); read-out: NF-κB percent inhibition. The procedure: The human T lymphoid cell line Jurkat was transfected with a response element lacZ reporter in which transcription of the β-galactosidase gene is directed by the binding site for the NF-κB transcription factor. […] At the end of the incubation, the cells are spun down and resuspended in the buffer and FDG (fluorescein di-β-D-galactopyranoside) solution. The covered plates are further incubated in the dark for 16 hours at 25° C. […] Compounds were screened at 10 μM.
For orientation: Reporter assays use an easily measured gene product as a stand-in for the process of interest.

SMILES strings stand for the structures.

One may read the inhibition as the change of the read-out against control, counted positive when it falls. For the compound `O=C1OC(c2ccccc2)(c2ccc(-c3ccccc3)cc2)C(O)=C1O` (stereo not drawn) [Example 7, 5-[(1,1'-Biphenyl)-4-yl]-3,4-dihydroxy-5-phenyl-2(5H)-furanone], the inhibition at 300 µM in assay [1] was determined as 34%. The COX-1 percent inhibition in assay [2] is 52%. Also, in assay [3], the inhibition at 30 µM stood at 102% and the inhibition at 1 µM came out at 61%. Also, in assay [4], the LPO percent inhibition is on record as 73%. Also, the inhibition at 10 µM in assay [5] was 21%.
As to `CCCC1(c2ccc(CC(C)C)cc2)OC(=O)C(O)=C1O` (stereo not drawn) [Example 9, 3,4-Dihydroxy-5-(4-isobutylphenyl)-5-(1-propyl)-2(5H)-furanone], in assay [1], the inhibition at 300 µM came out at 19%. The compound also returned a COX-1 percent inhibition in assay [2] of 25%. In assay [3], the inhibition at 30 µM stood at 82% and the inhibition at 1 µM was found to be 40%. Besides, the LPO percent inhibition in assay [4] is given as 79%. The inhibition at 10 µM in assay [5] was determined as 26%.
As for `CC(C)Cc1ccc(C2(c3ccccc3)OC(=O)C(O)=C2O)cc1` (stereo not drawn) [Example 10, 3,4-Dihydroxy-5-(4-isobutylphenyl)-5-phenyl-2(5H)-furanone], the inhibition at 300 µM in assay [1] was 34%. In assay [2], this compound returned a COX-1 percent inhibition of 43%. Further, in assay [3], the inhibition at 30 µM is 106% and the inhibition at 1 µM is 64%. Moreover, the LPO percent inhibition in assay [4] was 89%. In addition, the inhibition at 10 µM in assay [5] stood at 16%.
In the case of `CCCC1(c2ccc(-c3ccccc3)cc2)OC(=O)C(O)=C1O` (stereo not drawn) [Example 5, 5-[(1,1'-Biphenyl)-4-yl]-3,4-dihydroxy-5-propyl-2(5H)-furanone], the inhibition at 300 µM in assay [1] worked out at 22%. In assay [2], this compound gave a COX-1 percent inhibition of 13%. In addition, in assay [3], the inhibition at 30 µM is 99% and the inhibition at 1 µM was found to be 68%. In addition, in assay [4], the LPO percent inhibition was 70%. Also, the inhibition at 10 µM in assay [5] came to 68%.
As for `C[C@@]1(c2ccc(-c3ccccc3)cc2)OC(=O)C(O)=C1O` [Example 11, (S)-(+)-5-[(1,1'-Biphenyl)-4-yl]-3,4-dihydroxy-5-methyl-2(5H)-furanone], the inhibition at 300 µM in assay [1] was 10%. This compound returned a COX-1 percent inhibition in assay [2] of 34%. Also, in assay [3], the inhibition at 30 µM amounted to 101% and the inhibition at 1 µM came out at 59%. In assay [4], the LPO percent inhibition worked out at 71%. The inhibition at 10 µM in assay [5] came out at 72%.
Turning to `CC1(c2ccc(-c3ccccc3)cc2)OC(=O)C(O)=C1O` (racemic) [Example 2, 5-[(1,1'-Biphenyl)-4-yl]-3,4-dihydroxy-5-methyl-2(5H)-furanone], the inhibition at 300 µM in assay [1] was determined as 22%. The same compound yielded a COX-1 percent inhibition in assay [2] of 33%. Besides, in assay [3], the inhibition at 30 µM turned out to be 107% and the inhibition at 1 µM was 15%. In assay [4], this compound had an LPO percent inhibition of 78%. The inhibition at 10 µM in assay [5] is 90%.
On to `CC(C)Cc1ccc([C@]2(C)OC(=O)C(O)=C2O)cc1` [Example 14, (S)-(+)-3,4-Dihydroxy-5-methyl-5-[4-(2-methylpropyl)phenyl]-2(5H)-furanone], for which the inhibition at 300 µM in assay [1] amounted to 18%. In addition, the COX-1 percent inhibition in assay [2] is 12%. Besides, in assay [3], the inhibition at 30 µM came out at 96% and the inhibition at 1 µM is 50%. The compound also yielded an LPO percent inhibition in assay [4] of 66%. For the same compound, the inhibition at 10 µM in assay [5] was found to be 60%.
On to `CC(C)CC1(c2ccc(-c3ccccc3)cc2)OC(=O)C(O)=C1O` (stereo not drawn) [Example 6, 5-[(1,1'-Biphenyl)-4-yl]-3,4-dihydroxy-5-(2-methylpropyl)-2(5H)-furanone], for which the inhibition at 300 µM in assay [1] is 46%. Moreover, in assay [2], the COX-1 percent inhibition is on record as 67%. Moreover, in assay [3], the inhibition at 30 µM came to 96% and the inhibition at 1 µM came to 70%. This compound returned an LPO percent inhibition in assay [4] of 82%. For the same compound, in assay [5], the inhibition at 10 µM amounted to 59%.
On to `C[C@]1(c2ccc(-c3ccccc3)cc2)OC(=O)C(O)=C1O` [Example 12, (R)-(-)-5-[(1,1'-Biphenyl)-4-yl]-3,4-dihydroxy-5-methyl-2(5H)-furanone], for which the inhibition at 300 µM in assay [1] stood at 12%. The COX-1 percent inhibition in assay [2] came out at 10%. Moreover, in assay [3], the inhibition at 30 µM stood at 101% and the inhibition at 1 µM came out at 60%. In assay [4], this compound registered an LPO percent inhibition of 62%. For the same compound, the inhibition at 10 µM in assay [5] is 56%.
